Patent publication US7629340B2, “N-(6-membered aromatic ring)-amido anti-viral compounds” (SmithKline Beecham Corporation, priority 2005, dated 2009)

Assay: Replicon Assay (luciferase, ET cell line)
Assay type: cell-based, HCV
Settings: Hepatitis C virus; % inhibition of replication relative to no compound control, test concentration of 10 μM; ET cells, luciferase read 48-72 hours; read-out: % inhib at 10 uM
Experimental: A cell line, ET (Huh-lucubineo-ET) was used for screening of compounds of the present invention for HCV RNA dependent RNA polymerase. The ET cell line was stably transfected with RNA transcripts harboring a I389luc-ubi-neo/NS3-3′/ET; replicon with firefly luciferase-ubiquitin-neomycin phosphotransferase fusion protein and EMCV-IRES driven NS3-5B polyprotein containing the cell culture adaptive mutations (E1202G; T1280I; K1846T) (Krieger at al, 2001 and unpublished). The ET cells were grown in DMEM, supplemented with 10% fetal calf serum, 2 mM Glutamine, Penicillin (100 IU/mL)/Stretomycin (100 μg/mL), 1× nonessential amino acids, and 250 μg/mL G418 (“Geneticin”). They were all available through Life Technologies (Bethesda, Md.). The cells were plated at 0.5−1.0×10^4 cells/well in the 96 well plates and incubated for 24 hrs before adding nucleoside analogs. […] Luciferase activity were measured 48-72 hours later by adding a lysis buffer and the substrate (Catalog number Glo-lysis buffer E2661 and Bright-Glo luciferase system E2620 Promega, Madison, Wis.). Cells should not be too confluent during the assay. Percent inhibition of replication was plotted relative to no compound control. Under the same condition, cytotoxicity of the compounds was determined using cell proliferation reagent, WST-1 (Roche, Germany). The compounds showing antiviral activities, but no significant cytotoxicities were chosen to determine IC50 and TC50. For these determinations, 10 concentration of each compound were used. Concentrations for test compounds typically span a range of 500 fold. IC50 and TC50 values were calculated by fitting % inhibition at each concentration (I) to the following equation: % inhibition=100%/[1+10^(log IC50−log(I))*b] where b is Hill's coefficient.

SMILES	inhibition at 10 µM [%]
O=C(NC1CC1)c1csc(-c2cccc(NC(=O)[C@@H]3CCCN3C(=O)OCc3ccccc3)c2)n1 [Compound 6302, 2-[3-(4-Cyclopropylcarbamoyl-thiazol-2-yl)-phenylcarbamoyl]-pyrrolidine-1-carboxylic acid benzyl ester]	12.2
Cc1cc2nc(Cc3ccc(NC(=O)[C@@H]4CCCN4C(=O)OCc4ccccc4)cc3)[nH]c2cc1C [Compound 6014, 2-[4-(5,6-Dimethyl-1H-benzoimidazol-2-ylmethyl)-phenylcarbamoyl]-pyrrolidine-1-carboxylic acid benzyl ester]	99.6
O=C(Nc1cccc(S(=O)(=O)c2ccccc2)c1)[C@@H]1CCCN1C(=O)OCc1ccccc1 [Compound 6013, 2-(3-Benzenesulfonyl-phenylcarbamoyl)-pyrrolidine-1-carboxylic acid benzyl ester]	32.5
O=C(Nc1cccc(-c2ccc3[nH]ccc3c2)c1)[C@@H]1CCCN1C(=O)OCc1ccccc1 [Compound 6010, 2-[3-(1H-Indol-5-yl)-phenylcarbamoyl]-pyrrolidine-1-carboxylic acid benzyl ester]	98.6
CC1CCN(S(=O)(=O)c2ccc(NC(=O)[C@@H]3CCCN3C(=O)OCc3ccccc3)cc2)CC1 [Compound 6003, 2-[4-(4-Methyl-piperidine-1-sulfonyl)-phenylcarbamoyl]-pyrrolidine-1-carboxylic acid benzyl ester]	1.21
COc1ccc(-c2ccc(NC(=O)[C@@H]3CCCN3C(=O)OCc3ccccc3)cc2)cc1 [Compound 6019, 2-(4′-Methoxy-biphenyl-4-ylcarbamoyl)-pyrrolidine-1-carboxylic acid benzyl ester]	10.5
O=C(Nc1cccc(-c2ccc3ccccc3c2)c1)[C@@H]1CCCN1C(=O)OCc1ccccc1 [Compound 6044, 2-(3-Naphthalen-2-yl-phenylcarbamoyl)-pyrrolidine-1-carboxylic acid benzyl ester]	73.2
CN(C)c1ccc(-c2cccc(NC(=O)[C@@H]3CCCN3C(=O)OCc3ccccc3)c2)cc1 [Compound 6045, 2-(4′-Dimethylamino-biphenyl-3-ylcarbamoyl)-pyrrolidine-1-carboxylic acid benzyl ester]	15.7
Cc1cccc(Oc2cc(NC(=O)[C@@H]3CCCN3C(=O)OCc3ccccc3)cc([N+](=O)[O-])c2)c1 (stereo in doubt) [Compound 6039, 2-(3-Nitro-5-m-tolyloxy-phenylcarbamoyl)-pyrrolidine-1-carboxylic acid benzyl ester]	33.8
O=C(Nc1cccc(-c2cccc3cc[nH]c23)c1)[C@@H]1CCCN1C(=O)OCc1ccccc1 [Compound 6094, 2-[3-(1H-Indol-7-yl)-phenylcarbamoyl]-pyrrolidine-1-carboxylic acid benzyl ester]	98.8
